Measured values: patent US8088398B2, “Pharmaceutical compositions comprising fesoterodine” (UCB Pharma GmbH, priority 2006, dated 2012)
One block for each molecule: values may come before it.

Key:
[1] = Stability of blends of Fesoterodine with sugar alcohols / lactose; type: physicochemical
Protocol: Blends of Fesoterodine hydrogen fumarate with xylitol, sorbitol, mannitol and maltitol were stored for 6 weeks and 3 months in closed vials at 25° C. and 60% r.H., in closed vials at 40° C. and 75% r.H., or in open vials at 40° C. and 75% r.H. and then tested for stability by measuring the purity of Fesoterodine. The initial purity of the Fesoterodine in the blends was 99.7%.

[2] = Storage in open vials at 40° C. and 75% r.H. (stability, HPLC); type: physicochemical
Protocol: Fesoterodine hydrogen fumarate, a granulate containing Fesoterodine hydrogen fumarate and xylitol in a weight-ratio of 10:90, as well as a composition comprising Fesoterodine hydrogen fumarate and xylitol were stored in open vials (25 ml brown glass bottles) for up to 12 weeks at 40° C. and 75% r.H. The results are shown in Table 4 below.
The degradation of Fesoterodine was measured by HPLC. The following conditions were used to measure degradation products in the stability testing of Fesoterodine hydrogen fumarate: • Column: Polaris C18-Ether, 3 μm, 250 mm×4.6 mm • Eluent A: Water/methanesulfonic acid 1000:0.5 (v/v) • Eluent B: Acetonitrile/methanesulfonic acid 1000:0.5 (v/v) • Typical gradient profile:
• Column temperature: 35° C. • Flow rate: 1.2 mL/min • Detection wavelength: 220 nm • Injection volume: 20 μL
The retention time of the Active Metabolite was about 4.1 min (rrt=0.50); response factor: 1.4.
Evaluation of the HPLC results was by the area percent method.
A comparison of the observed average purity of a Fesoterodine-containing granulate and a corresponding composition as compared to pure Fesoterodine after open storage under stress conditions is set out in Table 4, wherein values are indicated in % of Fesoterodine hydrogen fumarate remaining at various times.

[3] = tested on: healthy male and female human subjects; experiment: Electrocardiographic effects (QT) of Fesoterodine formulations; type: in vivo; conditions: for QTc outlier analyses vs placebo: three days of treatment
Protocol: Fesoterodine formulations were administered orally to steady state at dosages of 4 mg and 28 mg per day to healthy male and female human subjects and the effect of such administration on QT values was determined.
The Fesoterodine 4 mg formulation was as follows. Higher dosage levels were obtained by administering multiple 4 mg formulations.
Steady state was determined by pharmacokinetic analysis of the Active Metabolite. Assay sensitivity was shown by a significant increase from baseline in QTcF and QTcI after multiple doses of moxifloxacin. The mean time-averaged QTcF increased by 8.6 ms after three days of treatment with moxifloxacin.
The study design was double-blind, single-site, randomized, placebo- and positive controlled, parallel. Two hundred and fifty-six male and female subjects were assigned to one of the following four treatment groups (N=64 each; at least 50% female): • Fesoterodine 4 mg.day • Fesoterodine 28 mg/day • Moxifloxacin 400 mg/day • Placebo
Subjects were administered 3 days of one of the above four treatments. Three 12-lead ECGs were downloaded from an H-12 flash card (data carrier) at each of the following time points on Days −1, 1, and 3: 1, 2, 3, 4, 6, 8, 10, 12, 14, 16, 18, and 23.5 hours. Plasma samples for the determination of Active Metabolite concentration (and the concentration of further metabolites) were drawn on Day 1 and Day 3 predose and at 1, 2, 3, 4, 6, 8, 12, and 23.5 hours postdose.

[4] = tested on: patients with overactive bladder; experiment: Treatment-emergent adverse events in the efficacy trial (safety set)
Protocol: A randomized, double-blind, double dummy, placebo and active-controlled trial in adult male and female human subjects was conducted.
For the safety set, the number of patients were: 283 in the placebo treatment group, 272 in the Fesoterodine 4 mg/day treatment group, and 287 in the Fesoterodine 8 mg/day treatment group.

[5] = tested on: patients with overactive bladder; experiment: Efficacy trial of Fesoterodine fumarate vs tolterodine ER and placebo; type: in vivo, human; conditions: FAS with LOCF; for Number of micturitions per 24 hours, Treatment difference vs Pbo / Urge incontinence per 24 hours, Treatment difference vs Pbo: ANCOVA; for Treatment response (responder rate): end of treatment
Protocol: The Fesoterodine formulations were as follows: […]
The trial was conducted in 19 countries. A total of 1135 subjects were randomized and 1103 subjects were included in the full analysis set: 279 in the placebo treatment group, 265 in the 4 mg Fesoterodine treatment group, 276 in the 8 mg Fesoterodine treatment group, and 283 in the 4 mg tolterodine ER treatment group. The mean age of subjects was 57 years. A total of 81% were female and 97% were white. There were no notable differences among the treatment groups with respect to gender, race, age, or weight/BMI.

[6] = Degradation of Fesoterodine during tablet production and storage; type: physicochemical
Protocol: Granulates of Fesoterodine with various sugars and sugar alcohols were produced as described in Example 1. These granulates were then used to produce 4 mg tablets according to Example 2.1 and with the composition given as “Example C” in Table 1, as well as wherein the xylitol was substituted with mannitol, maltitol, sorbitol, or lactose.

[7] = 4 mg/day, N = 272, listed as Feso
[8] = 8 mg/day, N = 287, listed as Feso

Purity of Fesoterodine in blends ([1]; closed vial 25° C., 60% r.H., 3 months): 99.7% | Purity of Fesoterodine in blends ([1]; closed vial 25° C., 60% r.H., 6 weeks): 99.6% | Purity of Fesoterodine in blends ([1]; closed vial 40° C., 75% r.H., 6 weeks): 99.3% | Purity of Fesoterodine in blends ([1]; open vial 40° C., 75% r.H., 3 months): 53.1% | Purity of Fesoterodine in blends ([1]; open vial 40° C., 75% r.H., 6 weeks): 96.3% | % of Fesoterodine hydrogen fumarate remaining (purity) ([2]; 1 week): 98.56% | % of Fesoterodine hydrogen fumarate remaining (purity) ([2]; 2 weeks): 97.67% | % of Fesoterodine hydrogen fumarate remaining (purity) ([2]; 4 weeks): 94.32% | % of Fesoterodine hydrogen fumarate remaining (purity) ([2]; 12 weeks): about 50% | % of Fesoterodine hydrogen fumarate remaining (purity) ([2]; 12 weeks, listed as Fesoterodine (pure)): 50.39% | % of Fesoterodine hydrogen fumarate remaining (purity) ([2]; Initial): 98.96%
Molecule: CC(C)C(=O)Oc1ccc(CO)cc1[C@H](CCN(C(C)C)C(C)C)c1ccccc1 [Fesoterodine, 2-[(1R)-3-(diisopropylamino)-1-phenylpropyl]-4-(hydroxymethyl)phenyl isobutyrate]
mean time-averaged QTcF decrease ([3]; 4 mg Fesoterodine per day, after three days of treatment): 4.6 ms | mean time-averaged QTcF decrease ([3]; 28 mg Fesoterodine per day, after three days of treatment): 5.0 ms | effect on myocardial repolarization (QTcF and QTcI vs placebo) ([3]; multiple 4 mg and 28 mg doses): did not exert an effect on myocardial repolarization | QTc outlier analyses vs placebo [3]: no differences between the Fesoterodine treatment groups and placebo | incidence of blurred vision ([4]; 4 mg/day): 1% | incidence of dry throat ([4]; 4 mg/day): 1% | incidence of urinary retention ([4]; 4 mg/day): 1% | Any adverse event, subjects (%) ([4]; 4 mg/day, N = 272): 50% | Any adverse event, subjects n ([4]; 4 mg/day, N = 272): 135 | Constipation, subjects (%) ([4]; 4 mg/day, N = 272): 3% | Constipation, subjects n ([4]; 4 mg/day, N = 272): 9 | Fatigue, subjects (%) ([4]; 4 mg/day, N = 272): (<1) % | Fatigue, subjects n ([4]; 4 mg/day, N = 272): 1 | Headache, subjects (%) ([4]; 4 mg/day, N = 272): (4) % | Headache, subjects n ([4]; 4 mg/day, N = 272): 12 | Keratoconjunctivitis sicca, subjects (%) ([4]; 4 mg/day, N = 272): 2% | Keratoconjunctivitis sicca, subjects n ([4]; 4 mg/day, N = 272): 6 | Mouth dry, subjects (%) ([4]; 4 mg/day, N = 272): 22% | Mouth dry, subjects n ([4]; 4 mg/day, N = 272): 59 | Nasopharyngitis, subjects (%) ([4]; 4 mg/day, N = 272): (3) % | Nasopharyngitis, subjects n ([4]; 4 mg/day, N = 272): 8 | Urinary tract infection, subjects (%) ([4]; 4 mg/day, N = 272): (3) % | Urinary tract infection, subjects n ([4]; 4 mg/day, N = 272): 8 | Any adverse event, subjects (%) [4, 7]: (50) % | Constipation, subjects (%) [4, 7]: (3) % | Keratoconjunctivitis sicca, subjects (%) [4, 7]: (2) % | Mouth dry, subjects (%) [4, 7]: (22) % | incidence of blurred vision ([4]; 8 mg/day): 1% | incidence of dry throat ([4]; 8 mg/day): 3% | incidence of urinary retention ([4]; 8 mg/day): 1% | Any adverse event, subjects (%) ([4]; 8 mg/day, N = 287): 58% | Any adverse event, subjects n ([4]; 8 mg/day, N = 287): 167 | Constipation, subjects (%) ([4]; 8 mg/day, N = 287): 5% | Constipation, subjects n ([4]; 8 mg/day, N = 287): 13 | Fatigue, subjects (%) ([4]; 8 mg/day, N = 287): (<1) % | Fatigue, subjects n ([4]; 8 mg/day, N = 287): 1 | Headache, subjects (%) ([4]; 8 mg/day, N = 287): (2) % | Headache, subjects n ([4]; 8 mg/day, N = 287): 7 | Keratoconjunctivitis sicca, subjects (%) ([4]; 8 mg/day, N = 287): 4% | Keratoconjunctivitis sicca, subjects n ([4]; 8 mg/day, N = 287): 12 | Mouth dry, subjects (%) ([4]; 8 mg/day, N = 287): 34% | Mouth dry, subjects n ([4]; 8 mg/day, N = 287): 97 | Nasopharyngitis, subjects (%) ([4]; 8 mg/day, N = 287): (2) % | Nasopharyngitis, subjects n ([4]; 8 mg/day, N = 287): 5 | Urinary tract infection, subjects (%) ([4]; 8 mg/day, N = 287): (3) % | Urinary tract infection, subjects n ([4]; 8 mg/day, N = 287): 9 | Any adverse event, subjects (%) [4, 8]: (58) % | Constipation, subjects (%) [4, 8]: (5) % | Keratoconjunctivitis sicca, subjects (%) [4, 8]: (4) % | Mouth dry, subjects (%) [4, 8]: (34) % | Number of micturitions per 24 hours, Treatment difference vs Pbo ([5]; 4 mg vs Pbo): −0.81 | Urge incontinence per 24 hours, Treatment difference vs Pbo ([5]; 4 mg vs Pbo): −0.81 | Number of micturitions per 24 hours, ANCOVA Endpoint LS Mean ([5]; 4 mg): −1.76 | Urge incontinence per 24 hours, ANCOVA Endpoint LS Mean ([5]; 4 mg): −1.95 | Number of micturitions per 24 hours, change from baseline at end of treatment, Mean (SD) ([5]; 4 mg/day): −1.74 (2.66) | Urge incontinence per 24 hours, change from baseline at end of treatment, Mean (SD) ([5]; 4 mg/day): −1.44 (2.75) | Treatment response (responder rate) ([5]; 4 mg/day): 75% | Number of micturitions per 24 hours, Treatment difference vs Pbo ([5]; 8 mg vs Pbo): −0.93 | Urge incontinence per 24 hours, Treatment difference vs Pbo ([5]; 8 mg vs Pbo): −1.08 | Number of micturitions per 24 hours, ANCOVA Endpoint LS Mean ([5]; 8 mg): −1.88 | Urge incontinence per 24 hours, ANCOVA Endpoint LS Mean ([5]; 8 mg): −2.22 | Number of micturitions per 24 hours, change from baseline at end of treatment, Mean (SD) ([5]; 8 mg/day): −1.94 (3.15) | Urge incontinence per 24 hours, change from baseline at end of treatment, Mean (SD) ([5]; 8 mg/day): −1.81 (2.35) | Treatment response (responder rate) ([5]; 8 mg/day): 79%

Molecule: Cc1ccc(O)c([C@H](CCN(C(C)C)C(C)C)c2ccccc2)c1 [Tolt, tolterodine, reference compound]
Number of micturitions per 24 hours, Treatment difference vs Pbo ([5]; 4 mg vs Pbo): −0.78 | Urge incontinence per 24 hours, Treatment difference vs Pbo ([5]; 4 mg vs Pbo): −0.60 | Number of micturitions per 24 hours, ANCOVA Endpoint LS Mean ([5]; 4 mg): −1.73 | Urge incontinence per 24 hours, ANCOVA Endpoint LS Mean ([5]; 4 mg): −1.74 | Number of micturitions per 24 hours, change from baseline at end of treatment, Mean (SD) ([5]; 4 mg/day): −1.69 (2.42) | Urge incontinence per 24 hours, change from baseline at end of treatment, Mean (SD) ([5]; 4 mg/day): −1.43 (2.20) | Treatment response (responder rate) ([5]; 4 mg/day): 72%

Molecule: COc1c(N2C[C@@H]3CCCN[C@@H]3C2)c(F)cc2c(=O)c(C(=O)O)cn(C3CC3)c12 [moxifloxacin, reference compound]
mean time-averaged QTcF increase ([3]; moxifloxacin 400 mg/day, after three days of treatment): 8.6 ms | QTc outlier analyses vs placebo [3]: a higher incidence of QTc outliers

hydrolyzation products and total degradation products in tablets prepared with the granulates [6]: 1.1-1.7%
Molecule: maltitol
